In patent US12213483B1, “Herbicidal compositions comprising trifludimoxazin” (BASF SE, priority 2024, dated 2025):

What was measured:
Assay type in all cases: in vivo
[1] = tested on: Abutilon theophrasti (ABUTH); test: Post-emergence application in greenhouse trials, ABUTH
Procedure: (§1) In the examples below, using the method of S. R. Colby (1967) “Calculating synergistic and antagonistic responses of herbicide combinations”, Weeds 15, p. 22ff., the value E, which is expected if the activity of the individual active compounds is only additive, was calculated: E=X+Y−(X·Y/100) • where • X=percent activity using active herbicide A at an application rate a; • Y=percent activity using active trifludimoxazin at an application rate b; • E=expected activity (in %) by A+B at application rates a+b.
(§2) If the value found experimentally is higher than the value E calculated according to Colby, a synergistic effect is present.
(§3) The culture containers used were plastic pots containing loamy sand with approximately 3.0% of humus as substrate. The seeds of the test plants were sown separately for each species.
(§4) For the post-emergence treatment, the test plants were grown to a plant height of from 3 to 15 cm, depending on the plant habit, and only then treated with the active compounds which had been suspended or emulsified in water. To this end, the test plants were either sown directly, and grown in the same containers, or they were first grown separately as seedlings and transplanted into the test containers a few days prior to treatment.
(§5) Depending on the species, the plants were kept at 10-25° C. and 20-35° C., respectively.
(§6) The test period extended over 2 to 4 weeks. During this time, the plants were tended and their response to the individual treatments was evaluated.
(§7) Evaluation was carried out using a scale from 0 to 100. 100 means no emergence of the plants, or complete destruction of at least the above-ground parts, and 0 means no damage or normal course of growth. A good herbicidal activity is given at values of at least 70, and very good herbicidal activity is given at values of at least 85.
(§8) In the greenhouse trials, unless indicated otherwise, herbicide A, trifludimoxazin and saflufenacil were formulated (50 g/I) and applied with addition of 1% MSO (methylated seed oil) as adjuvant. The solvent used was water (200 I/ha).

Kochia scoparia (KCHSC) [2] = test: Post-emergence application in greenhouse trials, KCHSC
Procedure: as §1, §2, §3, §4, §5, §6, §7, §8

[3] = tested on: Brachiaria decumbens (BRADC); test: Post-emergence application in greenhouse trials, BRADC; conditions: GS 13
Procedure: as §1, §2, §3, §4, §5, §6, §7, §8

[4] = tested on: Lolium multiflorum (LOLMU); test: Post-emergence application in greenhouse trials, LOLMU; conditions: 20 DAT
Procedure: as §1, §2, §3, §4, §5, §6, §7, §8

Cyperus iria (CYPIR) = test: Post-emergence application in field trials, CYPIR; conditions: 3 DAT, height 3-5 cm
Procedure: as §1, §2
(§9) On field test sites, natural weed infestation or seeded weeds were treated post-emergence of the weeds.
(§10) In the field trials, the weedy plants were treated as indicated below.
(§11) Herbicide A-1 (342 g/I), trifludimoxazin (500 g/I) and saflufenacil (342 g/I) were, together with addition of 1% MSO (methylated seed oil) as adjuvant (unless indicated otherwise), formulated in water as distribution medium as indicated and sprayed with commercial flat fan nozzles.
(§12) In the following experiments, the herbicidal activity for the individual herbicidal compositions (solo and mixture applications) was assessed at the indicated days after treatment (DAT). The assessments for the damage on undesired weeds caused by the composition was carried out using a scale from 0 to 100%, compared to the untreated control plants. Here, 0 means no damage and 100 means complete destruction of the plants.
(§13) Herbicide A-1 (100 g/l) and trifludimoxazin (500 g/l) were, together with addition of 1% MSO (methylated seed oil) as adjuvant (unless indicated otherwise), formulated in water as distribution medium as indicated and sprayed with commercial flat fan nozzles.

[5] = tested on: Amaranthus palmeri (AMAPA); test: Post-emergence application in field trials, AMAPA; conditions: 21 DAT, water volume 200 l/ha, 0.25 l/ha Dash MSO Max, pre plant burndown, height 30 cm
Procedure: as §1, §2, §9, §10, §11, §12, §13

[6] = tested on: Spermacoce latifolia (BOIFL); test: Post-emergence application in field trials, BOIFL; conditions: 8 DAT, water volume 200 l/ha, growth stage 12-16, height 3-10 cm
Procedure: as §1, §2, §9, §10, §11, §12, §13

[7] = tested on: Senna obtusifolia (CASOB); test: Post-emergence application in field trials, CASOB; conditions: 43 DAT, water volume 200 l/ha, growth stage 12-35, height 5-20 cm
Procedure: as §1, §2, §9, §10, §11, §12, §13

[8] = tested on: Brachiaria decumbens (BRADC); test: Post-emergence application in field trials, BRADC; conditions: 3 DAT, water volume 200 l/ha, growth stage 21-31, height 3-20 cm
Procedure: as §1, §2, §9, §10, §11
(§14) In the following experiments, the herbicidal activity for the individual herbicidal compositions (solo and mixture applications) was assessed at the indicated days after treatment (DAT). […]

Kochia scoparia (KCHSC) [9] = test: Post-emergence application in field trials, KCHSC; conditions: 28 DAT; water volume 100 l/ha; pre plant burndown; growth stage 11-16; height 1-9 cm; 18 g ai/ha
Procedure: as §1, §2, §9, §10, §11, §14

[10] = 20 DAT, growth stage 33, 0.2 g ai/ha
[11] = 20 DAT, growth stage 33, 0.3 g ai/ha
[12] = 20 DAT, growth stage 33, 0.5 g ai/ha
[13] = water volume 200 l/ha, growth stage 13-14, 25 g ai/ha

With `C#CCN1C(=O)C(F)(F)Oc2cc(F)c(-n3c(=O)n(C)c(=S)n(C)c3=O)cc21` [B-1, trifludimoxazin] the “% Herbicidal activity” value ([1]; 6 DAT, GS 33, B-1 0.2 g ai/ha) was 20%, the “% Herbicidal activity” value ([1]; 6 DAT, GS 33, B-1 0.3 g ai/ha) was 20% and the “% Herbicidal activity” value ([1]; 6 DAT, GS 33, B-1 0.4 g ai/ha) was 35%. The “% Herbicidal activity” value ([1]; 20 DAT, GS 33, B-1 0.3 g ai/ha) was 0%, the “% Herbicidal activity” value [1, 10] was 0% and the “% Herbicidal activity” value (Kochia scoparia (KCHSC) [2]; 6 DAT, GS 33, B-1 0.3 g ai/ha) was 45%. The “% Herbicidal activity” value (Kochia scoparia (KCHSC) [2]; 6 DAT, GS 33, B-1 0.5 g ai/ha) was 80%, the “% Herbicidal activity” value (Kochia scoparia (KCHSC) [2]; 6 DAT, GS 33, B-1 0.8 g ai/ha) was 85% and the “% Herbicidal activity” value (Kochia scoparia (KCHSC) [2]; 20 DAT, GS 33, B-1 0.3 g ai/ha) was 35%. For the same compound, the “% Herbicidal activity” value (Kochia scoparia (KCHSC) [2]; 20 DAT, GS 33, B-1 0.9 g ai/ha) was 80%, the “% Herbicidal activity” value (Kochia scoparia (KCHSC) [2]; 20 DAT, GS 33, B-1 1 g ai/ha) was 98% and the “% Herbicidal activity” value (Kochia scoparia (KCHSC) [2]; [11]) was 35%. For the same compound, the “% Herbicidal activity” value (Kochia scoparia (KCHSC) [2]; [12]) was 75%, the “% Herbicidal activity” value ([3]; 7 DAT, B-1 formulated as 500 g/l, B-1 1 g ai/ha) was 15% and the “% Herbicidal activity” value ([3]; 7 DAT, B-1 formulated as 500 g/l, B-1 2 g ai/ha) was 15%. The “% Herbicidal activity” value ([3]; 7 DAT, B-1 0.2 g ai/ha) was 10%, the “% Herbicidal activity” value ([3]; 7 DAT, B-1 0.3 g ai/ha) was 10% and the “% Herbicidal activity” value ([3]; 7 DAT, B-1 0.4 g ai/ha) was 10%. For the same compound, the “% Herbicidal activity” value ([3]; 7 DAT, B-1 0.8 g ai/ha) was 45%, the “% Herbicidal activity” value ([3]; 20 DAT, B-1 formulated as 500 g/l, B-1 2 g ai/ha) was 10% and the “% Herbicidal activity” value ([3]; 20 DAT, B-1 0.3 g ai/ha) was 5%. For the same compound, the “% Herbicidal activity” value ([4]; growth stage 13, 0.9 g ai/ha) was 15%, the “% Herbicidal activity” value (Cyperus iria (CYPIR); [13]) was 63% and the “% Herbicidal activity” value (Cyperus iria (CYPIR); water volume 300 l/ha, burndown in fruit plantation (citrus), GS 13-14, B-1 25 g ai/ha) was 65%. For the same compound, the “% Herbicidal activity” value ([5]; B-1 12.5 g ai/ha) was 20%, the “% Herbicidal activity” value ([6]; 12.5 g ai/ha) was 68% and the “% Herbicidal activity” value ([7]; 12.5 g ai/ha) was 48%. For the same compound, the “% Herbicidal activity” value ([8]; 12.5 g ai/ha) was 43% and the “% Herbicidal activity” value (Kochia scoparia (KCHSC) [9]) was 68%.
For `CCOC(=O)COc1ccccc1Oc1nc(-n2c(=O)cc(C(F)(F)F)n(C)c2=O)c(F)cc1Cl` [A-1, ethyl 2-[2-[[3-chloro-5-fluoro-6-[3-methyl-2,6-dioxo-4-(trifluoromethyl)pyrimidin-1-yl]-2-pyridyl]oxy]phenoxy]acetate], the “% Herbicidal activity” value ([1]; 6 DAT, GS 33, A-1 0.2 g ai/ha) was 65%, the “% Herbicidal activity” value ([1]; 6 DAT, GS 33, A-1 0.3 g ai/ha) was 65% and the “% Herbicidal activity” value ([1]; 6 DAT, GS 33, A-1 0.8 g ai/ha) was 85%. For the same compound, the “% Herbicidal activity” value ([1]; 20 DAT, GS 33, A-1 0.2 g ai/ha) was 15%, the “% Herbicidal activity” value ([1]; 20 DAT, GS 33, A-1 0.3 g ai/ha) was 15% and the “% Herbicidal activity” value [1, 10] was 15%. The “% Herbicidal activity” value (Kochia scoparia (KCHSC) [2]; 6 DAT, GS 33, A-1 0.4 g ai/ha) was 55%, the “% Herbicidal activity” value (Kochia scoparia (KCHSC) [2]; 6 DAT, GS 33, A-1 0.5 g ai/ha) was 65% and the “% Herbicidal activity” value (Kochia scoparia (KCHSC) [2]; 6 DAT, GS 33, A-1 0.9 g ai/ha) was 90%. The “% Herbicidal activity” value (Kochia scoparia (KCHSC) [2]; 20 DAT, GS 33, A-1 0.2 g ai/ha) was 15%, the “% Herbicidal activity” value (Kochia scoparia (KCHSC) [2]; 20 DAT, GS 33, A-1 0.3 g ai/ha) was 55% and the “% Herbicidal activity” value (Kochia scoparia (KCHSC) [2]; 20 DAT, GS 33, A-1 0.5 g ai/ha) was 55%. The “% Herbicidal activity” value (Kochia scoparia (KCHSC) [2]; 20 DAT, GS 33, A-1 0.9 g ai/ha) was 90%, the “% Herbicidal activity” value (Kochia scoparia (KCHSC) [2]; [11]) was 55% and the “% Herbicidal activity” value (Kochia scoparia (KCHSC) [2]; [12]) was 55%. The “% Herbicidal activity” value ([3]; 7 DAT, B-1 formulated as 500 g/l, A-1 2 g ai/ha) was 90%, the “% Herbicidal activity” value ([3]; 7 DAT, A-1 0.4 g ai/ha) was 40% and the “% Herbicidal activity” value ([3]; 7 DAT, A-1 0.8 g ai/ha) was 50%. The “% Herbicidal activity” value ([3]; 7 DAT, A-1 0.9 g ai/ha) was 60%, the “% Herbicidal activity” value ([3]; 7 DAT, A-1 1 g ai/ha) was 60% and the “% Herbicidal activity” value ([3]; 20 DAT, B-1 formulated as 500 g/l, A-1 2 g ai/ha) was 90%. For the same compound, the “% Herbicidal activity” value ([3]; 20 DAT, A-1 0.9 g ai/ha) was 55%, the “% Herbicidal activity” value ([4]; GS 13, A-1 0.3 g ai/ha) was 10% and the “% Herbicidal activity” value ([4]; growth stage 13, 0.3 g ai/ha) was 10%. For the same compound, the “% Herbicidal activity” value (Cyperus iria (CYPIR); [13]) was 23%, the “% Herbicidal activity” value (Cyperus iria (CYPIR); water volume 300 l/ha, burndown in fruit plantation (citrus), GS 13-14, A-1 25 g ai/ha) was 23% and the “% Herbicidal activity” value ([5]; A-1 12.5 g ai/ha) was 70%. For the same compound, the “% Herbicidal activity” value ([5]; A-1 25 g ai/ha) was 85%, the “% Herbicidal activity” value ([6]; 20 g ai/ha) was 75% and the “% Herbicidal activity” value ([6]; 30 g ai/ha) was 82%. For the same compound, the “% Herbicidal activity” value ([7]; 20 g ai/ha) was 58%, the “% Herbicidal activity” value ([7]; 30 g ai/ha) was 73% and the “% Herbicidal activity” value ([8]; 20 g ai/ha) was 77%. The “% Herbicidal activity” value (Kochia scoparia (KCHSC) [9]) was 57%.
